Tested on: 485368-065-R3-J5-PDC spheroids with HUVEC/MSC, viability
Experiment: Anticancer human tumor 485368-065-R3-J5-PDC patient-derived pancreatic carcinoma cell line growth inhibition [RAS]
Details: for viability, T/C: stronger effect = lower value
Outline: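 Multi-cell-type spheroids: tumor cells plus HUVEC endothelial cells and mesenchymal stem cells. RAS-pathway inhibitors were combined with targeted agents, each dosed in half-log steps down from clinical Cmax, or from 10 microM when Cmax was unknown.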

[1] = curve of first compound, second compound 0.000949 µM
[2] = curve of first compound, second compound 0.003 µM
[3] = curve of first compound, second compound 0.00949 µM
[4] = curve of first compound, second compound 0.03 µM
[5] = curve of first compound, second compound 0.0949 µM
[6] = curve of first compound, second compound 0.3 µM
[7] = second compound 0.000949 µM, first compound 0.00316 µM
[8] = second compound 0.000949 µM, first compound 0.01 µM
[9] = second compound 0.000949 µM, first compound 0.0316 µM
[10] = second compound 0.000949 µM, first compound 0.1 µM
[11] = second compound 0.000949 µM, first compound 0.316 µM
[12] = second compound 0.000949 µM, first compound 1 µM
[13] = second compound 0.003 µM, first compound 0.00316 µM
[14] = second compound 0.003 µM, first compound 0.01 µM
[15] = second compound 0.003 µM, first compound 0.0316 µM
[16] = second compound 0.003 µM, first compound 0.1 µM
[17] = second compound 0.003 µM, first compound 0.316 µM
[18] = second compound 0.003 µM, first compound 1 µM
[19] = second compound 0.00949 µM, first compound 0.00316 µM
[20] = second compound 0.00949 µM, first compound 0.01 µM
[21] = second compound 0.00949 µM, first compound 0.0316 µM
[22] = second compound 0.00949 µM, first compound 0.1 µM
[23] = second compound 0.00949 µM, first compound 0.316 µM
[24] = second compound 0.00949 µM, first compound 1 µM
[25] = second compound 0.03 µM, first compound 0.00316 µM
[26] = second compound 0.03 µM, first compound 0.01 µM
[27] = second compound 0.03 µM, first compound 0.0316 µM
[28] = second compound 0.03 µM, first compound 0.1 µM
[29] = second compound 0.03 µM, first compound 0.316 µM
[30] = second compound 0.03 µM, first compound 1 µM
[31] = second compound 0.0949 µM, first compound 0.00316 µM
[32] = second compound 0.0949 µM, first compound 0.01 µM
[33] = second compound 0.0949 µM, first compound 0.0316 µM
[34] = second compound 0.0949 µM, first compound 0.1 µM
[35] = second compound 0.0949 µM, first compound 0.316 µM
[36] = second compound 0.0949 µM, first compound 1 µM
[37] = second compound 0.3 µM, first compound 0.00316 µM
[38] = second compound 0.3 µM, first compound 0.01 µM
[39] = second compound 0.3 µM, first compound 0.0316 µM
[40] = second compound 0.3 µM, first compound 0.1 µM
[41] = second compound 0.3 µM, first compound 0.316 µM
[42] = second compound 0.3 µM, first compound 1 µM
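Further: spheroids exposed to agents for seven days before readout.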

C=CC(=O)N1CCN(c2nc(OCC3CCCN3C)nc3c(F)c(-c4nc(N)cc(C)c4C(F)(F)F)c(Cl)cc23)C(C)C1 (stereo unspecified)
viability, T/C (compound 0.00316 µM): 106% [middle of 12 runs] | viability, T/C (compound 0.01 µM, compound 0.0316 µM): 101% | viability, T/C (compound 0.01 µM, compound 0.1 µM): 98.5% | viability, T/C (compound 0.01 µM, compound 0.316 µM): 111% | viability, T/C (compound 0.01 µM, compound 1 µM): 97% | viability, T/C (compound 0.01 µM): 104% [middle of 12 runs] | viability, T/C (compound 0.0316 µM, compound 0.00316 µM): 102% | viability, T/C (compound 0.0316 µM, compound 0.01 µM): 110% | viability, T/C (compound 0.0316 µM, compound 0.1 µM): 107% | viability, T/C (compound 0.0316 µM, compound 0.316 µM): 107% | viability, T/C (compound 0.0316 µM, compound 1 µM): 113% | viability, T/C (compound 0.0316 µM): 106% [middle of 13 runs] | viability, T/C (compound 0.1 µM, compound 0.00316 µM): 116% | viability, T/C (compound 0.1 µM, compound 0.01 µM): 112% | viability, T/C (compound 0.1 µM, compound 0.0316 µM): 99.1% | viability, T/C (compound 0.1 µM, compound 0.316 µM): 107% | viability, T/C (compound 0.1 µM, compound 1 µM): 94% | viability, T/C (compound 0.1 µM): 101% [middle of 13 runs] | viability, T/C (compound 0.316 µM, compound 0.00316 µM): 103% | viability, T/C (compound 0.316 µM, compound 0.01 µM): 104% | viability, T/C (compound 0.316 µM, compound 0.0316 µM): 102% | viability, T/C (compound 0.316 µM, compound 0.1 µM): 108% | viability, T/C (compound 0.316 µM, compound 1 µM): 100% | viability, T/C (compound 0.316 µM): 106% [middle of 13 runs] | viability, T/C (compound 1 µM, compound 0.00316 µM): 112% | viability, T/C (compound 1 µM, compound 0.01 µM): 106% | viability, T/C (compound 1 µM, compound 0.0316 µM): 108% | viability, T/C (compound 1 µM, compound 0.1 µM): 101% | viability, T/C (compound 1 µM, compound 0.316 µM): 96.7% | viability, T/C (compound 1 µM): 101% [middle of 13 runs] | IC50 (compound alone, run of 07/15/2024): > 1000 nM | IC50 (curve of compound): > 1000 nM

O=C(c1ccc(F)c(F)c1Nc1ccc(I)cc1F)N1CC(O)([C@@H]2CCCCN2)C1 + CCn1c(-c2cc(N3CCN(C)CC3)cnc2C(C)OC)c2c3cc(ccc31)-c1csc(n1)CC(NC(=O)C1CC1C)C(=O)N1CCCC(N1)C(=O)OCC(C)(C)C2
IC50 [1]: < 3.16 nM | IC50 [2]: < 3.16 nM | IC50 [3]: < 3.16 nM | IC50 [4]: < 3.16 nM | IC50 [5]: < 3.16 nM | IC50 [6]: < 3.16 nM | viability, T/C [7]: 32.9% | viability, T/C [8]: 29.9% | viability, T/C [9]: 22.8% | viability, T/C [10]: 17.6% | viability, T/C [11]: 12.8% | viability, T/C [12]: 3.33% | viability, T/C [13]: 19.3% | viability, T/C [14]: 20.3% | viability, T/C [15]: 14.9% | viability, T/C [16]: 10.8% | viability, T/C [17]: 4.68% | viability, T/C [18]: 1.33% | viability, T/C [19]: 16.1% | viability, T/C [20]: 12.9% | viability, T/C [21]: 10.6% | viability, T/C [22]: 5.68% | viability, T/C [23]: 1.77% | viability, T/C [24]: 1.26% | viability, T/C [25]: 10.3% | viability, T/C [26]: 8.49% | viability, T/C [27]: 6.41% | viability, T/C [28]: 2.18% | viability, T/C [29]: 1.53% | viability, T/C [30]: 1.44% | viability, T/C [31]: 6.98% | viability, T/C [32]: 5.08% | viability, T/C [33]: 3% | viability, T/C [34]: 1.9% | viability, T/C [35]: 1.88% | viability, T/C [36]: 1.97% | viability, T/C [37]: 6.37% | viability, T/C [38]: 3.9% | viability, T/C [39]: 2.16% | viability, T/C [40]: 2.03% | viability, T/C [41]: 2.03% | viability, T/C [42]: 2.14%

CCN1CCN(Cc2ccc(Nc3ncc(F)c(-c4cc(F)c5nc(C)n(C(C)C)c5c4)n3)nc2)CC1 + CCn1c(-c2cccnc2C(C)OC)c2c3cc(ccc31)N1CCOC(CC(NC(=O)C(C(C)C)N(C)C(=O)C3(F)CCN(C(=O)C#CC(C)(C)N(C)C)CC3)C(=O)N3CCCC(N3)C(=O)OCC(C)(C)C2)C1
IC50 [1]: > 1000 nM | IC50 [2]: 639 nM | IC50 [3]: 941 nM | IC50 [4]: 693 nM | IC50 [5]: 888 nM | IC50 [6]: > 1000 nM | viability, T/C [7]: 103% | viability, T/C [8]: 88.8% | viability, T/C [9]: 103% | viability, T/C [10]: 77.9% | viability, T/C [11]: 63.5% | viability, T/C [12]: 51.5% | viability, T/C [13]: 98.4% | viability, T/C [14]: 91.5% | viability, T/C [15]: 96.4% | viability, T/C [16]: 77.3% | viability, T/C [17]: 58.2% | viability, T/C [18]: 45% | viability, T/C [19]: 96.8% | viability, T/C [20]: 100% | viability, T/C [21]: 91.3% | viability, T/C [22]: 84.7% | viability, T/C [23]: 60.9% | viability, T/C [24]: 49.6% | viability, T/C [25]: 96.8% | viability, T/C [26]: 100% | viability, T/C [27]: 95.4% | viability, T/C [28]: 82.6% | viability, T/C [29]: 70.5% | viability, T/C [30]: 40.7% | viability, T/C [31]: 96.8% | viability, T/C [32]: 95.1% | viability, T/C [33]: 96.1% | viability, T/C [34]: 83.4% | viability, T/C [35]: 66.3% | viability, T/C [36]: 48% | viability, T/C [37]: 96.8% | viability, T/C [38]: 104% | viability, T/C [39]: 89.3% | viability, T/C [40]: 88.8% | viability, T/C [41]: 63.7% | viability, T/C [42]: 55.8%
